Measurements published in patent US20230227500A1, “NANOPARTICLE-LIKE DELIVERY SYSTEM” (Evox Therapeutics Ltd, priority 2019, published 2023).
Where a SMILES comes first, the peptide text is derived from it. Bridges are numbered along the chain shown (N, C = ends). [ ]: non-standard residue; d: D form. R8 = C=CCCCCCC[C@@](C)(N)C(=O)O; S8 = C=CCCCCCC[C@](C)(N)C(=O)O; S5 = C=CCCC[C@](C)(N)C(=O)O

Key:
[1] = In vivo delivery and biodistribution of Cy5-labelled SSO, IVIS imaging of dissected tissues; set-up: species or system NMRI mice; details: 2.5 mg/kg SSO, MR10, i.v., 48 h, FIG. 2(B)
Procedure: In order to investigate the in vivo delivery capacity and biodistribution profile of the peptide/SSO nanoparticles, Oct2815 peptide was formulated at a dose of 50 μg (2.5 mg/kg) of Cy5-labelled 2′-OMe/LNA mixmer-based SSO (at MR10) and then injected intravenously into NMRI mice. After 48 h of treatment, the fluorescence values were measured from the dissected tissues (brain, liver, lungs, heart, G.I. tract, spleen, muscles and kidneys) of the animals with an IVIS in vivo imager.

mice = experiment: Tolerability of peptide/mRNA formulation after intravenous injection; format: in vivo; details: 6.25 mg/kg of mRNA/25 mg/kg of peptide, i.v.
Procedure: Delivery of mRNA was tested using the 246, Oct815 and Oct2815 peptides and a luciferase-encoding mRNA (Luc mRNA). Various peptides were formulated at 1.25 mg/kg of mRNA dosing, at a peptide-to-mRNA weight ratio 4. Oct2815 was also formulated at 6.25 mg/kg of mRNA dosing, at a peptide-to-mRNA weight ratio 4. The formulations were subsequently injected intravenously into NMRI mice. After 24 h of treatment, the mice were sacrificed and the lungs, heart, liver, spleen and kidneys dissected. Luciferase activity was measured in the dissected tissues by bioluminescence imaging on an IVIS in vivo imaging system.
The peptides of the invention are believed to be tolerated in a dose of up to 30 mg/kg in mice, which is at least 10-fold higher than the dose commonly known to be tolerated when using any CPP of the prior art in vivo.

HEK293T Stop-Light cells [2] = experiment: Effect of additives on Cas9 RNP delivery, stop-light reporter; format: cell-based; details: FIG. 11
Procedure: In order to investigate the effect of additives on the efficacy of the peptides/nanoparticles of the invention a range of different additives were tested and the effect on delivery of Cas9 ribonuncleoprotein (RNP) was examined using the same stop-light reporter system described above and illustrated in FIG. 5.
Peptides Oct215 or Oct2815 were tested. Cas9 RNP was formulated in HBG buffer (HEPES buffered glucose) with either glycerol, PEG, PVP10, PVP55, PVA18, PVA40 or PVA-PEG. Oct215 or 2815 was added and incubated at room temperature for 40 min to allow peptide nanoparticles to form (1.1:1 sgRNA to Cas9 and 1:150 RNP:CPP).
Following incubation HEK293T Stop-Light cells were treated with the peptide RNP complex (25 ng Cas9 added to each well). After 72 h of treatment, eGFP expression was analysed by fluorescence-activated cell sorting (FACS) analysis. Gene editing efficiency was calculated as the percentage of eGFP expressing cells in the viable mCherry expressing population, mCherry being the marker for reporter construct expression and eGFP for gene editing of said construct.

HeLa pluc705 cells = experiment: HeLa pluc705 splice correction reporter, delivery of SSOs; format: cell-based; details: 100 nM 2'OMe SSO, 24 h, MR3-MR10, FIG. 1B
Text: To evaluate the ability of peptides of the invention to effectively deliver SSOs into cells, the HeLa pluc705 splice correction reporter system was used as a model (FIG. 1A). In this assay, HeLa cells are stably transfected with a luciferase endocing sequence that is interrupted by the β-globin pre-mRNA carrying a crypting splice site. If the SSO is effectively delivered to the cells and reaches the cell nucleus, it masks the aberrant splicing site (depicted ON-705 on the right-hand side of FIG. 1A). By redirecting the splicing, it will give rise to the production of functional luciferase protein. The luciferase enzyme activity thus acts as a measure to assess the delivery efficacy of the SSOs. This model is known for being an excellent positive read-out system with wide dynamic range for evaluating and comparing the delivery of SSOs and different delivery vectors.
The peptides were formulated with 2′-O-methyl phosphorothioate (2′OMe)-based SSOs at different peptide-to-SSO molar ratios (MRs), namely MR3, MR5, MR7 and MR10. The HeLa pluc705 cells were treated with various peptide/SSO nanoformulations at 100 nM SSO concentration for 24 h. After this time, the luciferase activity was measured. Delivery efficacy was expressed as a fold-increase over the values from untreated (UT) cells (ie. fold increase in splice correction).

HEK293T Stop-Light cells [3] = experiment: Cas9 RNP delivery, stop-light reporter gene editing (eGFP by FACS); format: cell-based; details: FIG. 5B
Text: Delivery of proteins is another important modality for the peptides of the present invention. In order to investigate the ability of the peptides to deliver protein, a stop-light reporter system was employed. FIG. 5A illustrates the stop-light reporter system, which is a quick and simple system to evaluate indel formation in stably transduced cells. Cells are transfected with a construct containing an mCherry gene followed by two enhanced green fluorescent protein (eGFP) genes that are shifted out of frame by +1 and +2 nucleotides, respectively. The mCherry gene is constituently expressed, while the eGFP genes are only expressed if a double stranded break in the linker creates insertions or deletions of +/−1 or 2 bp. This occurs upon the effective delivery of Cas9 RNP system to the nucleus of cells, which leads to one of the two eGFP genes being in frame and thus expressed. […]
5k HEK293T Stop-Light cells were treated with 50 ng ([…]) Cas9 that was formulated with various peptides at different peptide-to-Cas9 RNP MRs (50:1-100:1). After 72 h of treatment, eGFP expression was analysed by fluorescence-activated cell sorting (FACS) analysis. Gene editing efficiency was calculated as a percentage of cells in the cell population where eGFP expression was induced by the treatment.

Which results are given for `C=CCCCCCC[C@@](C)(NC(=O)[C@H](C)NC(=O)[C@H](CCCCN)NC(=O)[C@H](C)NC(=O)[C@H](CC(C)C)NC(=O)[C@H](CCCCN)NC(=O)[C@@](C)(CCCCCCC=C)NC(=O)[C@@H](N)CC(C)C)C(=O)N[C@@H](C)C(=O)N[C@@H](CCCCN)C(=O)N[C@@H](CC(C)C)C(=O)N[C@@H](CC(C)C)C(=O)N[C@@H](CCCCN)C(=O)N[C@@H](C)C(=O)N[C@@](C)(CCCCCCC=C)C(=O)N[C@@H](C)C(=O)N[C@@H](CCCCN)C(=O)N[C@@H](C)C(=O)N[C@@H](CC(C)C)C(N)=O` [Oct2815, H-L A(R8) K L A K A A(R8) A K L L K A A(S8) A K A L-NH2] (H-L[R8]KLAKA[R8]AKLLKA[S8]AKAL-NH2)?
accumulation of SSO in liver in comparison with SSO alone (fold enrichment) [1]: 2.5 fold; accumulation of SSO in lungs in comparison with SSO alone (fold enrichment) [1]: 3.5 fold; accumulation of SSO in spleen in comparison with SSO alone (fold enrichment) [1]: 5 fold; side-effects at very high dosing (mice): without any apparent side-effects

For “H-L A(R8) K L A K A A A K L L K A A(S8) A K A L-NH2 (H-L[R8]KLAKAAAKLLKA[S8]AKAL-NH2; staple 2-15; SMILES CC(C)C[C@H](NC(=O)[C@H](C)NC(=O)[C@H](CCCCN)NC(=O)[C@H](C)NC(=O)[C@]1(C)CCCCCCC=CCCCCCC[C@@](C)(NC(=O)[C@@H](N)CC(C)C)C(=O)N[C@@H](CCCCN)C(=O)N[C@@H](CC(C)C)C(=O)N[C@@H](C)C(=O)N[C@@H](CCCCN)C(=O)N[C@@H](C)C(=O)N[C@@H](C)C(=O)N[C@@H](C)C(=O)N[C@@H](CCCCN)C(=O)N[C@@H](CC(C)C)C(=O)N[C@@H](CC(C)C)C(=O)N[C@@H](CCCCN)C(=O)N[C@@H](C)C(=O)N1)C(N)=O) [Oct215]”, which “gene editing efficiency (efficacy of cargo delivery) with PVA-PEG” value (HEK293T Stop-Light cells [2]; 25 ng Cas9, 1:150 RNP:CPP, HBG buffer with PVA-PEG, 72 h) is on record?
The value was “up to 60%”.

What about the “effect of additives on efficacy” value (HEK293T Stop-Light cells [2]) of the same molecule?
The value was “enhanced still further by the presence of different additives”.

Which results are given for “H-L A K L A K A A(R8) A K L L K A A(S8) A K A L-NH2 (H-LAKLAKA[R8]AKLLKA[S8]AKAL-NH2; staple 8-15; SMILES CC(C)C[C@H](NC(=O)[C@H](C)NC(=O)[C@H](CCCCN)NC(=O)[C@H](C)NC(=O)[C@]1(C)CCCCCCC=CCCCCCC[C@@](C)(NC(=O)[C@H](C)NC(=O)[C@H](CCCCN)NC(=O)[C@H](C)NC(=O)[C@H](CC(C)C)NC(=O)[C@H](CCCCN)NC(=O)[C@H](C)NC(=O)[C@@H](N)CC(C)C)C(=O)N[C@@H](C)C(=O)N[C@@H](CCCCN)C(=O)N[C@@H](CC(C)C)C(=O)N[C@@H](CC(C)C)C(=O)N[C@@H](CCCCN)C(=O)N[C@@H](C)C(=O)N1)C(N)=O) [Oct815]”?
SSO delivery and splice switching activity (fold increase in splice correction, luciferase activity) (HeLa pluc705 cells): able to mediate effective SSO delivery and induce strong splice switching activity; relative potency among peptides (Cas9 RNP gene editing) (HEK293T Stop-Light cells [3]): most potent

For “H-L A K L A K A A(R8) A K L L K A A(S5) A K A L-NH2 (H-LAKLAKA[R8]AKLLKA[S5]AKAL-NH2; staple 8-15; SMILES CC(C)C[C@H](NC(=O)[C@H](C)NC(=O)[C@H](CCCCN)NC(=O)[C@H](C)NC(=O)[C@]1(C)CCCC=CCCCCCC[C@@](C)(NC(=O)[C@H](C)NC(=O)[C@H](CCCCN)NC(=O)[C@H](C)NC(=O)[C@H](CC(C)C)NC(=O)[C@H](CCCCN)NC(=O)[C@H](C)NC(=O)[C@@H](N)CC(C)C)C(=O)N[C@@H](C)C(=O)N[C@@H](CCCCN)C(=O)N[C@@H](CC(C)C)C(=O)N[C@@H](CC(C)C)C(=O)N[C@@H](CCCCN)C(=O)N[C@@H](C)C(=O)N1)C(N)=O) [compound 246]”, which “SSO delivery and splice switching activity (fold increase in splice correction, luciferase activity)” value (HeLa pluc705 cells) is on record?
Its value is “able to mediate effective SSO delivery and induce strong splice switching activity”.
